Laboratory results from article PMC3653315 (Biomolecular NMR assignments, 2011).

Molecular target: Ssu72 (dSsu72) (Drosophila melanogaster, UniProt Q9VWE4)
Conditions: 25 mM Tris-HCl, 25 mM KCl, 2 mM dithiothreitol, 5% D2O, 30 °C; phosphate up to 25:1 molar ratio; active site loop

Ssu72 (dSsu72), sequence (Q9VWE4 1-195): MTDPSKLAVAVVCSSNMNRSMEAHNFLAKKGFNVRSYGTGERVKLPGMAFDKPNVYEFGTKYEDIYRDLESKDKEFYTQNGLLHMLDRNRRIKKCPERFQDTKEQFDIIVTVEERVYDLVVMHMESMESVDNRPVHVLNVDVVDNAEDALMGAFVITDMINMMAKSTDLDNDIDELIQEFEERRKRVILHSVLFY

O=P(O)(O)O [inorganic phosphate]
NMR titration, 1H/15N-HSQC-TROSY chemical shift perturbation: large number of significant perturbations upon titration of wild-type Ssu72 with inorganic phosphate
